This assay addresses Nurr1 protein (Homo sapiens, UniProt P43354). Kind of assay: SPR. It is filed as binding.

What is called Kd is the constant that tells how readily two partners part at equilibrium. Low values mean tighter binding, high ones weaker binding.

Nurr1 protein, sequence (P43354 whole entry): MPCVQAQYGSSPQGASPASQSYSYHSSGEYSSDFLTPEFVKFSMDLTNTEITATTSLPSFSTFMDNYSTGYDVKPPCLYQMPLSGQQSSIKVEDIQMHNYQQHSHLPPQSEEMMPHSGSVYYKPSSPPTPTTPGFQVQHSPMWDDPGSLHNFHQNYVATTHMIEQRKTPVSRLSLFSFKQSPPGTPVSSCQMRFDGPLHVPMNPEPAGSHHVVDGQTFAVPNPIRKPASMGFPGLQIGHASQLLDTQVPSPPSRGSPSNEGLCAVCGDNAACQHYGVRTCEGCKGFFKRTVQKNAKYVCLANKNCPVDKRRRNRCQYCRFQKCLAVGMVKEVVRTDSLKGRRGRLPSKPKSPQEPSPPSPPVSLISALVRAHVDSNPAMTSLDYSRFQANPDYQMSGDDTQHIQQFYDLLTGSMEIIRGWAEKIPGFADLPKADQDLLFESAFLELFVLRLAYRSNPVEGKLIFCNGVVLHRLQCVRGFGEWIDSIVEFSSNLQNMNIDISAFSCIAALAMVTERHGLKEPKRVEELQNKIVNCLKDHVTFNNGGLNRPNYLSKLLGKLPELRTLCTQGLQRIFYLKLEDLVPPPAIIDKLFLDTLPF

`CCN(CC)Cc1cc(Nc2ccnc3cc(Cl)ccc23)ccc1O` [amodiaquine] yielded a Kd of 37 µM.
To `CO[C@H]1C[C@H](O[C@H]2CC[C@]3(C=O)[C@H]4CC[C@]5(C)[C@@H](C6=CC(=O)OC6)CC[C@]5(O)[C@@H]4CC[C@]3(O)C2)O[C@H](C)[C@H]1O[C@@H]1O[C@H](CO[C@@H]2O[C@H](CO)[C@@H](O)[C@H](O)[C@H]2O)[C@@H](O)[C@H](O)[C@H]1O` [compound 7, K-strophanthoside] belongs 23.1 µM.

The values above are taken from PMC12409540 (ACS Omega, 2025).
